Among the test systems are SF-268 CNS; UACC-257 melanoma; LOX IMVI melanoma; TK-10 renal; MDA-MB-435; PC-3 prostate; SW-620 colon; NCI-H522 lung; SK-MEL-28 melanoma; OVCAR-4 ovarian.
What all share (assay): DTP human tumour cell line panel, 48 h

As a reminder, the GI50 is the concentration that inhibits growth by half. In general, TGI refers to the concentration giving total growth inhibition. Low readings indicate more potent growth arrest, high ones less potent growth arrest.

“And” between values parts separate entries of the source, which are not always exact repeats. Equal entries are not always repeated.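 96-well plates; 48 h exposure; 5 concentrations. Endpoints by linear interpolation between flanking doses. Not reached: highest tested concentration assigned. GI50 is the concentration that inhibits growth by half. TGI denotes the concentration required for complete inhibition of growth.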

In the case of `Nc1cc(C(F)(F)F)c(-c2cc(N3CCOCC3)nc(N3CCOCC3)n2)cn1`, the GI50 with SF-268 CNS was 0.925 µM and 1.42 µM; with UACC-257 melanoma, 0.59 µM and 0.417 µM; in the experiment on LOX IMVI melanoma, 0.807 µM and 0.907 µM; in the experiment on TK-10 renal it was 0.303 µM and 0.338 µM; with MDA-MB-435, 0.275 µM and 0.29 µM; in the experiment with PC-3 prostate, 0.44 µM and 0.49 µM. Moreover, the GI50 in the experiment with SW-620 colon was 1 µM and 0.717 µM; in the experiment with NCI-H522 lung, 0.504 µM and 0.29 µM; in the experiment on SK-MEL-28 melanoma, 0.555 µM and 0.536 µM; in the experiment with OVCAR-4 ovarian, 1.4 µM and 1.27 µM. For the same compound, the TGI with SF-268 CNS was > 9.53 µM and 7.1 µM; in the experiment on UACC-257 melanoma it was > 7.31 µM and 4.25 µM; in the experiment with LOX IMVI melanoma, over 33.4 µM; with TK-10 renal it was 2.75 µM and 2.15 µM; in the experiment on MDA-MB-435 it was 1.03 µM and 1.32 µM; with PC-3 prostate it was > 9.49 µM and 6.09 µM. The TGI is over 100 µM with SW-620 colon; 3.93 µM and 1.64 µM in the experiment on NCI-H522 lung; 5.14 µM and 4.38 µM in the experiment with SK-MEL-28 melanoma; > 9.01 µM and 29 µM in the experiment with OVCAR-4 ovarian.

On to `CC[C@]1(O)CC2CN(CCc3c([nH]c4ccccc34)[C@@](C(=O)OC)(c3cc4c(cc3OC)N(C=O)[C@H]3[C@@](O)(C(=O)OC)[C@H](OC(C)=O)[C@]5(CC)C=CCN6CC[C@]43[C@@H]65)C2)C1` (some centres not stated), for which the GI50 was under 0.005 µM in the experiment with SF-268 CNS; under 0.005 µM with UACC-257 melanoma; 0.00808 µM in the experiment with LOX IMVI melanoma; 0.0192 µM in the experiment with TK-10 renal; under 0.005 µM in the experiment on MDA-MB-435; 0.0059 µM in the experiment with PC-3 prostate. Besides, the GI50 with SW-620 colon is under 0.005 µM; in the experiment with NCI-H522 lung, under 0.005 µM; with SK-MEL-28 melanoma it was under 0.005 µM; in the experiment with OVCAR-4 ovarian, 0.00653 µM. In addition, the TGI is over 50 µM in the experiment with SF-268 CNS; over 38.4 µM in the experiment with UACC-257 melanoma; over 50 µM with LOX IMVI melanoma; 9.86 µM in the experiment on TK-10 renal; under 0.005 µM in the experiment with MDA-MB-435; over 50 µM in the experiment with PC-3 prostate. The TGI with SW-620 colon was over 50 µM; with NCI-H522 lung, under 0.005 µM; with SK-MEL-28 melanoma, over 50 µM; in the experiment on OVCAR-4 ovarian it was over 50 µM.

Turning to `OCc1ccc(N2CCc3cc(F)ccc3C2)cc1Cl`, the GI50 in the experiment on SF-268 CNS was 15.2 µM; in the experiment with UACC-257 melanoma, 0.0197 µM; in the experiment on LOX IMVI melanoma it was 9.7 µM; in the experiment on MDA-MB-435, 13.1 µM; in the experiment on PC-3 prostate it was 11 µM; in the experiment on SW-620 colon, 0.17 µM. Besides, the GI50 in the experiment on NCI-H522 lung is 12.7 µM; in the experiment on SK-MEL-28 melanoma it was 13.8 µM; with OVCAR-4 ovarian it was 0.0277 µM. Also, the total growth inhibition concentration (TGI) in the experiment with SF-268 CNS is 29.9 µM; in the experiment on UACC-257 melanoma it was 0.0723 µM; in the experiment with LOX IMVI melanoma, 24.5 µM; with TK-10 renal, 0.0416 µM; with MDA-MB-435, 27.6 µM; in the experiment on PC-3 prostate it was 27.6 µM. Moreover, the TGI in the experiment with SW-620 colon is 15.8 µM; in the experiment on NCI-H522 lung it was 25.9 µM; in the experiment on SK-MEL-28 melanoma, 26.9 µM; with OVCAR-4 ovarian, 0.354 µM.

`CCCCCCCCCC(CCCC(O)CC(=O)O)OC1OC(COC2OC(C)C(OC(C)=O)C(O)C2O)C(O)C(O)C1OC1OC(CO)C(O)C(O)C1OC1OC(C)C(OC(=O)CC(C)C)C(O)C1O` (configuration not stated): the GI50 with SF-268 CNS, in the experiment on UACC-257 melanoma, in the experiment with LOX IMVI melanoma, with TK-10 renal, with MDA-MB-435 and in the experiment on PC-3 prostate was over 35 µM each time. In addition, the GI50 in the experiment on SW-620 colon, with NCI-H522 lung, in the experiment with SK-MEL-28 melanoma and in the experiment on OVCAR-4 ovarian was over 35 µM in each case. The TGI with SF-268 CNS, with UACC-257 melanoma, in the experiment on LOX IMVI melanoma, with TK-10 renal, in the experiment on MDA-MB-435 and in the experiment on PC-3 prostate was over 35 µM each time. In addition, the TGI with SW-620 colon, in the experiment on NCI-H522 lung, in the experiment on SK-MEL-28 melanoma and in the experiment on OVCAR-4 ovarian was over 35 µM each time.

Take `CN(C)C=NC1CCC(C(C)(C)C)CC1` (configuration not stated): the concentration for total growth inhibition (TGI) was found to be 96 µM with SF-268 CNS; 29.1 µM with UACC-257 melanoma; 29.7 µM in the experiment with LOX IMVI melanoma; 38.6 µM with TK-10 renal; 33.3 µM in the experiment with MDA-MB-435; 30.3 µM in the experiment with PC-3 prostate. The TGI came out at 34.4 µM with SW-620 colon, 31.8 µM in the experiment on NCI-H522 lung, 29.4 µM in the experiment on SK-MEL-28 melanoma and 51.1 µM in the experiment with OVCAR-4 ovarian.

Take `O=CNc1ccc(S(=O)(=O)c2ccc(NC=O)cc2)cc1`: the TGI in the experiment with SF-268 CNS, with UACC-257 melanoma, in the experiment with LOX IMVI melanoma, in the experiment on TK-10 renal, in the experiment on MDA-MB-435 and in the experiment on PC-3 prostate was over 100 µM throughout. For the same compound, the concentration for total growth inhibition (TGI) in the experiment with SW-620 colon, with NCI-H522 lung, with SK-MEL-28 melanoma and with OVCAR-4 ovarian was over 100 µM in each case.

For the compound `O=C(COc1ccc(OCC(=O)N2C(=O)CN(c3ccccc3)C2=S)cc1)N1C(=O)CN(c2ccccc2)C1=S`, the TGI in the experiment on SF-268 CNS, in the experiment with UACC-257 melanoma, with LOX IMVI melanoma, in the experiment on TK-10 renal, in the experiment with MDA-MB-435 and in the experiment with PC-3 prostate was over 100 µM in each case. Moreover, the TGI in the experiment with SW-620 colon, with NCI-H522 lung, in the experiment on SK-MEL-28 melanoma and in the experiment on OVCAR-4 ovarian was over 100 µM in each case. The GI50 in the experiment with UACC-257 melanoma is over 25 µM; with LOX IMVI melanoma, 29.6 µM; with TK-10 renal, over 25 µM; with MDA-MB-435, over 25 µM; in the experiment with SW-620 colon, over 25 µM; in the experiment with NCI-H522 lung it was over 25 µM. Further, the GI50 in the experiment on SK-MEL-28 melanoma and with OVCAR-4 ovarian was over 25 µM in each case.

On to `CCCCCCCCCCCCCCCCCCOc1ccccc1CC(=O)OCC[N+](CC)(CC)CC`, for which the GI50 in the experiment on SF-268 CNS is 1.48 µM; in the experiment on UACC-257 melanoma, 1.42 µM; in the experiment with LOX IMVI melanoma, 0.881 µM; with TK-10 renal, 1.45 µM; in the experiment on MDA-MB-435, 1.55 µM; with PC-3 prostate, 1.2 µM. In addition, the GI50 was 1.82 µM with SW-620 colon, 1.53 µM in the experiment on NCI-H522 lung, 1.9 µM with SK-MEL-28 melanoma and 1.75 µM in the experiment with OVCAR-4 ovarian. In addition, the TGI was determined as 6.32 µM in the experiment on SF-268 CNS; 5.1 µM with UACC-257 melanoma; 1.66 µM in the experiment with LOX IMVI melanoma; 7.65 µM in the experiment with TK-10 renal; 6.2 µM in the experiment with MDA-MB-435; 3.18 µM in the experiment on PC-3 prostate. Further, the TGI came out at 7.33 µM in the experiment on SW-620 colon, 6.84 µM in the experiment on NCI-H522 lung, 7.55 µM in the experiment with SK-MEL-28 melanoma and 7.42 µM in the experiment on OVCAR-4 ovarian.

The values are drawn from PubChem BioAssay (NCI).
